The source of these data is patent US8361965B2, “Recombinant chimeric protein of neutrophil inhibitory factor and hirugen, and pharmaceutical composition thereof” (Lunan Pharmaceutical Group Corporation, priority 2008, dated 2013).

In one assay the test system is leukocyte adhesion. Kind of assay: anti-leukocyte adhesion activity, in vitro comparative analysis. It counts as cell-based. Conditions: in vitro.
The next assay concerns rabbit whole blood. Kind of assay: in vitro whole blood anticoagulation assay. Conditions: 0.2 ml heparin sodium 1 mg/ml + 1.0 ml rabbit blood; room temperature 15 min. On the set-up: species or system white rabbit. How it is done: TNHH was diluted to 4 mg/ml, 2 mg/ml, 1 mg/ml, 0.5 mg/ml respectively with phosphate buffer solution (10 mmol/L PB, 0.15 mol/L NaCl, pH7.4). Heparin sodium was prepared to 1 mg/ml with the same buffer solution.
Venous blood was taken from marginal ear vein of the rabbit, and rapidly added into 0#-5# tubes. 0.2 ml of the diluted TNHH samples with different concentrations was added into the 1#-4# tubes, respectively. 0.2 ml phosphate buffer solution was added into the 0# tube, which was used as a negative control. 0.2 ml heparin sodium (1 mg/ml) was added into the 5# tube, which was used as a positive control. The reagents were mixed rapidly and stored at room temperature for 15 min for observing the results.

For assay [1], the system named is blood coagulation system. Kind of assay: effects on blood coagulation system of New Zealand rabbits in vivo (APTT, PT, TT). On the set-up: species or system New Zealand rabbit; PT: unit not given beside the values; APTT / TT: unit not given here. How it is done:
Medicaments were administrated via intravenous injection from marginal ear vein, and 1.8 ml blood was harvested from marginal ear veins at the time of before administration (0 min), and 10 min, 30 min, 60 min, 120 min and 240 min after administration, respectively (the time for injecting is 2 min). 3.2% sodium citrate (9:1) was added for anticoagulation and then mixed and centrifuged at 3000 rpm/min for 3 min. The plasma was send to Department of Clinical Laboratory, Southwest Hospital for determining blood coagulation indexes (APTT, TT and PT) with a full automatic coagulation analyzer and the difference before and after administration was obtained by comparison.

Assay [2] has as its system blood coagulation system. Kind of assay: effects on blood coagulation system of New Zealand rabbits in vitro (APTT, PT, TT). The assay is classed as biochemical, New Zealand rabbit. On the set-up: PT: unit not given beside the values; APTT / TT: unit not given here. How it is done: Medicaments were diluted to the following concentrations for use: TNHH: 3.0 mg/ml; 1.0 mg/ml; 333 μg/ml; bivalrudin: 600 μg/ml; 200 μg/ml; 67 μg/ml; Hirudin: 660 μg/ml; 220 μg/ml; 73 μg/ml.
The blood was sampled from six New Zealand rabbits (10×1.8 ml for each one) from marginal ear vein and added into 10 anticoagulation tubes, respectively. 3.2% sodium citrate (9:1) was added for anticoagulation.
20 μl anticoagulated blood was taken from each tube, followed by the addition of 20 μl above diluted medicaments for each tube. 20 μl physiological saline was added into the control tube. Samples were mixed thoroughly and centrifuged at 3000 rpm/min for 3 min, and plasma was send to Department of Clinical Laboratory, Southwest Hospital for determining blood coagulation indexes (APTT, TT and PT) with a full automatic coagulation analyzer and the difference before and after administration was obtained by comparison.

In assay [3] the test system is platelet aggregation induced by human thrombin. Put plainly: antiplatelet aggregation assay (rabbits dosed i.v., thrombin-induced aggregation of PRP). The assay is classed as in vivo, Japanese Giant Ear White Rabbits. How it is done: Platelet aggregation rate was determined by puncture of the central artery of the ear before administration, and then rabbits were randomly divided into 5 groups (4 in each group) based on the platelet aggregation rate and body weight: (1) negative control group (5.12 mg mannitol/kg), (2) high dose TNHH group (4.0 mg/kg), (3) middle dose TNHH group (2.0 mg/kg), (4) low dose TNHH group (1.0 mg/kg), and (5) positive control group (0.1 mg recombinant hirudin/kg). The rabbits in each group were administered at the dose respectively via intravenous injection from the marginal ear vein. Blood samples were collected at the time of 15 min after administration (timed by stopwatch) by puncture of the central artery of the ear to determine the platelet aggregation rate. The method of platelet aggregation rate determination was described as follows: the blood samples were collected by puncture of the central artery of the ear using silicified syringe. 3.8% anticoagulant sodium citrate solution (blood: anticoagulant=9:1) was used. The sample was centrifuged at 200×g for 8 min, and the supernatant obtained was platelet-rich plasma (PRP); then the remaining part was centrifuged again at 2200×g for 10 min, and the supernatant obtained was platelet-poor plasma (PPP). The platelet in PRP was counted as approximate 4.0×10^5/mm^3. According to Born's turbidimetry, a turbidimetric tube with 200 μl PRP and a small magnetic bar was placed in a platelet aggregation instrument and incubated at 37 for 1 min. After calibrating with PPP, the platelet was induced to aggregate by adding inductive human thrombin (0.76 IU/ml) under stirring. The effect of medicaments on the aggregation of platelet was analyzed using the aggregation curve and the maximum aggregation rate obtained from the instrument. The maximum aggregation rate was calculated according to the formula below: […]

The mark [4] stands for this setting: Bivalrudin 1.50 mg/kg i.v., 0 min (before administration).
The mark [5] stands for this setting: Bivalrudin 1.50 mg/kg i.v., 10 min.
[6] abbreviates: Bivalrudin 1.50 mg/kg i.v., 30 min.
Setting [7] is: Bivalrudin 1.50 mg/kg i.v., 60 min.
Setting [8] is: Bivalrudin 1.50 mg/kg i.v., 120 min.
The mark [9] stands for this setting: Bivalrudin 1.50 mg/kg i.v., 240 min.
Where [10] appears, read: bivalrudin 0.67 μg/ml in rabbit blood.
Setting [11] is: bivalrudin 2.00 μg/ml in rabbit blood.
Where [12] appears, read: bivalrudin 6.00 μg/ml in rabbit blood.
Setting [13] is: Hirudin 0.50 mg/kg i.v., 0 min (before administration).
The mark [14] stands for this setting: Hirudin 0.50 mg/kg i.v., 10 min.
Where [15] appears, read: Hirudin 0.50 mg/kg i.v., 30 min.
Setting [16] is: Hirudin 0.50 mg/kg i.v., 60 min.
[17] abbreviates: Hirudin 0.50 mg/kg i.v., 120 min.
[18] abbreviates: Hirudin 0.50 mg/kg i.v., 240 min.
Setting [19] is: hirudin 0.73 μg/ml in rabbit blood.
Where [20] appears, read: hirudin 2.20 μg/ml in rabbit blood.
Where [21] appears, read: hirudin 6.60 μg/ml in rabbit blood.

As to “Hirogen: artificial dodecapeptide based on the C-terminal 53rd-64th amino acids of hirudin (NGDFEEIPEEYL) (not fully specified) [reference compound]”, the anti-leukocyte adhesion activity result in the assay with leukocyte adhesion is listed as “none”.

With heparin sodium [reference compound], the “Test results (blood coagulation)” value with rabbit whole blood was “not coagulated and Non-”.

Consider “Bivalrudin: lyophilized powder for injection, manufactured by Chengdu Jiexun Biotechnical Co., Ltd. [reference compound]”, for which the APTT with blood coagulation system [1] (setting [4]) came out at 40.7 ± 5.77; in the assay on blood coagulation system [1] (setting [5]), 45.75 ± 7.20; in the assay on blood coagulation system [1] (setting [6]), 39.33 ± 6.62; in the assay on blood coagulation system [1] (setting [7]), 38.03 ± 5.55; in the assay with blood coagulation system [1] (setting [8]) it was 32.68 ± 4.77; in the assay with blood coagulation system [1] (setting [9]) it was 34.57 ± 5.56. In addition, the figures for the APTT with blood coagulation system [2] (setting [10]), in the assay on blood coagulation system [2] (setting [11]) and with blood coagulation system [2] (setting [12]) were 35.12 ± 8.04, 40.75 ± 8.71 and 55.00 ± 12.4, respectively. Moreover, the PT is 6.87 ± 0.21 in the assay on blood coagulation system [1] (setting [4]); 8.27 ± 0.67 in the assay on blood coagulation system [1] (setting [5]); 7.40 ± 0.27 in the assay with blood coagulation system [1] (setting [6]); 7.10 ± 0.15 with blood coagulation system [1] (setting [7]); 7.02 ± 0.12 in the assay on blood coagulation system [1] (setting [8]); 6.90 ± 0.18 in the assay on blood coagulation system [1] (setting [9]). Also, the PT worked out at 7.83 ± 0.39 with blood coagulation system [2] (setting [10]), 8.75 ± 0.52 in the assay with blood coagulation system [2] (setting [11]) and 11.08 ± 1.20 in the assay on blood coagulation system [2] (setting [12]). Further, the TT in the assay with blood coagulation system [1] (setting [4]) amounted to 15.28 ± 1.60; with blood coagulation system [1] (setting [5]) it was 71.18 ± 23.37; in the assay with blood coagulation system [1] (setting [6]), 36.12 ± 14.00; in the assay with blood coagulation system [1] (setting [7]) it was 26.68 ± 7.30; with blood coagulation system [1] (setting [8]), 15.40 ± 2.16; in the assay with blood coagulation system [1] (setting [9]), 15.50 ± 2.36. Also, the TT was 43.22 ± 8.13 with blood coagulation system [2] (setting [10]), 53.67 ± 9.03 with blood coagulation system [2] (setting [11]) and 85.38 ± 23.07 with blood coagulation system [2] (setting [12]).

For the molecule hirudin [reference compound], the “aggregation ratio, Before administration” value in assay [3] (hirudin 0.1 mg/kg group) turned out to be 58.44 ± 4.42%. Besides, the “aggregation ratio, 15 min after administration” value in assay [3] (hirudin 0.1 mg/kg i.v.) came to 4.34 ± 6.88%. Moreover, the “aggregation ratio, difference” value in assay [3] (hirudin 0.1 mg/kg i.v., before vs 15 min after) is listed as 54.09 ± 8.69 %. Also, the APTT was found to be 38.02 ± 6.54 with blood coagulation system [1] (setting [13]); 39.97 ± 5.69 in the assay on blood coagulation system [1] (setting [14]); 37.72 ± 5.55 in the assay on blood coagulation system [1] (setting [15]); 35.02 ± 7.59 in the assay on blood coagulation system [1] (setting [16]); 32.05 ± 5.69 in the assay with blood coagulation system [1] (setting [17]); 32.07 ± 5.97 in the assay on blood coagulation system [1] (setting [18]). The APTT in the assay on blood coagulation system [2] (setting [19]) was 37.47 ± 6.15; in the assay on blood coagulation system [2] (setting [20]), 52.85 ± 15.88; in the assay with blood coagulation system [2] (setting [21]), 58.43 ± 14.36. Further, the PT in the assay with blood coagulation system [1] (setting [13]) was determined as 6.80 ± 0.28; in the assay on blood coagulation system [1] (setting [14]) it was 7.27 ± 0.22; with blood coagulation system [1] (setting [15]), 7.01 ± 0.31; in the assay with blood coagulation system [1] (setting [16]), 6.95 ± 0.34; with blood coagulation system [1] (setting [17]), 6.97 ± 0.27; in the assay with blood coagulation system [1] (setting [18]) it was 7.08 ± 0.26. For the same molecule, the values for the PT in the assay with blood coagulation system [2] (setting [19]), in the assay with blood coagulation system [2] (setting [20]) and with blood coagulation system [2] (setting [21]) were 7.33 ± 0.33, 7.87 ± 0.37 and 9.37 ± 1.30, respectively. Moreover, the TT with blood coagulation system [1] (setting [13]) was 16.40 ± 1.73; with blood coagulation system [1] (setting [14]), 112.70; in the assay with blood coagulation system [1] (setting [15]), 84.93 ± 49.24; in the assay on blood coagulation system [1] (setting [16]) it was 58.17 ± 33.19; with blood coagulation system [1] (setting [17]), 30.42 ± 17.09; in the assay with blood coagulation system [1] (setting [18]) it was 16.30 ± 2.32. Further, the TT in the assay with blood coagulation system [2] (setting [19]) came to 50.40 ± 8.19; in the assay on blood coagulation system [2] (setting [20]), 102.77 ± 21.90; in the assay on blood coagulation system [2] (setting [21]), 116.40 ± 8.82.

B1: TNHH-G15/n3: recombinant TNHH with linker 1 (Gly)15 and linker 2 (GSGG)3: NIF-(Gly)15-FPRP-(GSGG)3-hirugen (protein)
chain: MNEHNLRCPQNGTEMPGFNDSIRLQFLAMHNGYRSKLALGHISITEESESDDDDDFGFLPDFAPRASKMRYLEYDCEAEKSAYMSARNCSDSSSPPEGYDENKYIFENSNNISEAALKAMISWAKEAFNLNKTKEGEGVLYRSNHDISNFANLAWDAREKFGCAVVNCPLGEIDDETNHDGETYATTIHVVCHYPKINKTEGQPIYKVGTPCDDCSEYTKKADNTTSADPVCIPDDGVCFIGSKADYDSKEFYRFRELGGGGGGGGGGGGGGGFPRPGSGGGSGGGSGGNGDFEEIPEEYL
B1 yielded an anti-leukocyte adhesion activity in the assay on leukocyte adhesion of 740 Unit/mg.
